# Biological target: T1, human GR (Homo sapiens, UniProt P04150)
# T1 construct: naturally expresses the human GR; endogenous in cells
# T1 sequence (P04150 1-777): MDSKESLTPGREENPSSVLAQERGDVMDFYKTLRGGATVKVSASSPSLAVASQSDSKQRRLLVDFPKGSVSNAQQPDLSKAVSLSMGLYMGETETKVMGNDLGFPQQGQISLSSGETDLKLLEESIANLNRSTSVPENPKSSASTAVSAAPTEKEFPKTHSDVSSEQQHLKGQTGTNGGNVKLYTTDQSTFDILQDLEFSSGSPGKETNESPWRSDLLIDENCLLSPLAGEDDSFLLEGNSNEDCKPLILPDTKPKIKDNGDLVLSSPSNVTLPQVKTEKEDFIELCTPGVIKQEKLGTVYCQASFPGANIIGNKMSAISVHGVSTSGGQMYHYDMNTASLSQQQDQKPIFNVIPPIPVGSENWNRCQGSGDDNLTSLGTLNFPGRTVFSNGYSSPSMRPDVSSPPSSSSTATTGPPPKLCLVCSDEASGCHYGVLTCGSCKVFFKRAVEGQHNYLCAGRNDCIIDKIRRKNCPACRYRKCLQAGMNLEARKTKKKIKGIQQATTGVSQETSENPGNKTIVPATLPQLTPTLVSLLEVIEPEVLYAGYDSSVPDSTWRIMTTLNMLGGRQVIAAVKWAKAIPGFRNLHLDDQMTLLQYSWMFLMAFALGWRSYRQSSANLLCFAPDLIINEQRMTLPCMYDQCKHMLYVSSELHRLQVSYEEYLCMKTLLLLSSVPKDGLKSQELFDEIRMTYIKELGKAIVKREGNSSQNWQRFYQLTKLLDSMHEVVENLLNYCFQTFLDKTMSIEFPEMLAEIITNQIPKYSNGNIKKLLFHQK
# Test: Transrepression assay (GITAR), TNFα-β-lactamase reporter in U937 cells
# Assay type: cell-based
# Conditions: for EC50: U937 cells, IP = inflection point; for Emax: U-937, U937 cells, activity repressed by 100 nM dexamethasone alone set as 100%
# From the text: Transrepression Assay (GITAR)
# This assay assesses the ability of test compounds to control transcription from the TNFα-β-lactamase reporter gene in U937 cells, a human myelomonocytic leukemia cell line that naturally expresses the human GR. The assay measures compound dependent-repression of the TNFa promoter linked to a reporter gene.
# The human U937 cells that had been stablely transfected with the TNF-a promoter driving ˜-lactamase are used for this assay. U937 cells contain an endogenous glucocorticoid receptor (GR). Cells are maintained in RPMI 1640 Growth medium (GibcoCat#11875-093) containing 25 mM HEPES, 10% FBS, 2 mM L-Glutamine, 1 mM Sodium pyruvate, 25 μg/ml Gentamicin (Gibed Cat#1571 0-064), 1:1000 2-Mercaptoethanol (Gibco Cat#21985-023) and 0.8 mg/ml G418 (Gibco Cat#10131-027). The density of the cells in the flask needs to be about 1×10^6-3×10^6/ml at the time of harvest. Usually, the cells are split to 1.2˜1.4×10^5/ml (1:10) 3 days prior to the assay. 50,000 cells/well are plated in 96 well black-walled plates the day of assay. Test compounds are added 10 J.lL/well, and cells are incubated at 37° C. for 30˜45 min. For assaying compounds, first dilute 1:10 in DMSO to make 1 mM, then further dilute 1:100 in medium to make 10× stock prior to adding to the cells. Add 50 ng/ml PMA (Sigma, cat#P8139) 10 μL/well to a final concentration 5 ng/ml, and 1 μg/ml LPS (Sigma, cat#L4130) 10 μL/well to a final concentration 100 ng/ml. Incubate cells at 370 C overnight for −18 hr. PMA is stored frozen as […] in DMSO. Dilute 1:10 in DMSO for a working stock of 10 μg/ml and store at −20° C. For assaying, dilute the 10 μg/ml working stock 1:200 in medium to make a 10× solution (50 ng/ml). Store frozen LPS at 1 mg/ml in PBS, dilute 1:1000 in medium to make 10×μg/ml) for the assay. Add 6× loading buffer (CCF2-AM) 20 μL/well, and incubate at room temperature for 70-90 min. […] The activity repressed by 100 nM dexamethasone alone is set as 100% activity.
EC50,Emax,SMILES
52 nM,86%,"NC(=O)CNC(=O)c1cccnc1CC[C@]1(O)CCC2=Cc3c(cnn3-c3ccc(F)cc3)C[C@@]21C1CC1 [Example 43, N-(2-Amino-2-oxoethyl)-2-{2-[(4aR,5R)-4a-cyclopropyl-1-(4-fluorophenyl)-5-hydroxy-1,4,4a,5,6,7-hexahydrocyclopenta[f]indazol-5-yl]ethyl}pyridine-3-carboxamide]"
38 nM,86%,"NC(=O)CNC(=O)c1cc(F)cnc1CC[C@]1(O)CCC2=Cc3c(cnn3-c3ccc(F)cc3)C[C@@]21C1CC1 [Example 44, N-(2-Amino-2-oxoethyl)-2-{2-[(4aR,5R)-4a-cyclopropyl-1-(4-fluorophenyl)-5-hydroxy-1,4,4a,5,6,7-hexahydrocyclopenta[f]indazol-5-yl]ethyl}-5-fluoropyridine-3-carboxamide]"
9 nM,83%,"NC(=O)CNC(=O)c1ccccc1CC[C@]1(O)CCC2=Cc3c(cnn3-c3ccc(F)cc3)C[C@@]21C1CC1 [Example 47, N-(2-Amino-2-oxoethyl)-2-{2-[(4aR,5R)-4a-cyclopropyl-1-(4-fluorophenyl)-5-hydroxy-1,4,4a,5,6,7-hexahydrocyclopenta[f]indazol-5-yl]ethyl}benzamide]"
9 nM,87%,"CC(C)(CO)NC(=O)c1cc(F)cnc1CC[C@]1(O)CCC2=Cc3c(cnn3-c3ccc(F)cc3)C[C@@]21C1CC1 [Example 48, 2-{2-[(4aR,5R)-4a-Cyclopropyl-1-(4-fluorophenyl)-5-hydroxy-1,4,4a,5,6,7-hexahydrocyclopenta[f]indazol-5-yl]ethyl}-5-fluoro-N-(1-hydroxy-2-methylpropan-2-yl)pyridine-3-carboxamide]"
12 nM,78%,"NC(=O)c1c(C2CC2)ccnc1CC[C@]1(O)CCC2=Cc3c(cnn3-c3ccc(F)cc3)C[C@@]21C1CC1 [Example 49, 4-Cyclopropyl-2-{2-[(4aR,5R)-4a-cyclopropyl-1-(4-fluorophenyl)-5-hydroxy-1,4,4a,5,6,7-hexahydrocyclopenta[f]indazol-5-yl]ethyl}pyridine-3-carboxamide]"
9 nM,88%,"O=C(NCCO)c1ccccc1CC[C@]1(O)CCC2=Cc3c(cnn3-c3ccc(F)cc3)C[C@@]21C1CC1 [Example 50, 2-{2-[(4aR,5R)-4a-Cyclopropyl-1-(4-fluorophenyl)-5-hydroxy-1,4,4a,5,6,7-hexahydrocyclopenta[f]indazol-5-yl]ethyl}-N-(2-hydroxyethyl)benzamide]"

# Continued, compound first:
SMILES,EC50,Emax
"CC[C@]12Cc3cnn(-c4ccc(F)cc4)c3C=C1CC[C@@]2(O)CCc1nccc(C2CC2)c1C(=O)OC [Example 41, Methyl 4-cyclopropyl-2-{2-[(4aS,5R)-4a-ethyl-1-(4-fluorophenyl)-5-hydroxy-1,4,4a,5,6,7-hexahydrocyclopenta[f]indazol-5-yl]ethyl}pyridine-3-carboxylate]",262 nM,79%
"CC[C@]12Cc3cnn(-c4ccc(F)cc4)c3C=C1CC[C@@]2(O)CCc1ccccc1S(C)(=O)=O [Example 42, (4aS,5R)-4a-Ethyl-1-(4-fluorophenyl)-5-{2-[2-(methylsulfonyl)phenyl]ethyl}-1,4,4a,5,6,7-hexahydrocyclopenta[f]indazol-5-ol]",11 nM,89%
"CC(C)(CO)NC(=O)c1ccccc1CC[C@]1(O)CCC2=Cc3c(cnn3-c3ccc(F)cc3)C[C@@]21C1CC1 [Example 45, 2-{2-[(4aR,5R)-4a-Cyclopropyl-1-(4-fluorophenyl)-5-hydroxy-1,4,4a,5,6,7-hexahydrocyclopenta[f]indazol-5-yl]ethyl}-N-(1-hydroxy-2-methylpropan-2-yl)benzamide]",9 nM,85%
"O=C(NC1(CO)CC1)c1ccccc1CC[C@]1(O)CCC2=Cc3c(cnn3-c3ccc(F)cc3)C[C@@]21C1CC1 [Example 46, 2-{2-[(4aR,5R)-4a-Cyclopropyl-1-(4-fluorophenyl)-5-hydroxy-1,4,4a,5,6,7-hexahydrocyclopenta[f]indazol-5-yl]ethyl}-N-[1-(hydroxymethyl)cyclopropyl]benzamide]",7 nM,90%
